This note sets out measurements from US20250034498A1, “MICROFLUIDIC DEVICES” (Ecole Polytechnique Federale de Lausanne, priority 2021, published 2025).

The test system of this assay is neural tube organoids. Kind of assay: dorsal-ventral patterning of neural tube organoids at the gradient window of the microfluidic device. The format is cell-based. The note with it: for identity of neural tube organoid (PAX3/7 dorsal marker, OLIG2 ventral marker): D6 organoids exposed 18 hours; for spatial patterning of neural tube organoid (PAX3/7 dorsal marker, OLIG2 ventral marker): anti-parallel gradient 1.6 nM BMP4 (L)-500 nM SAG (R), 18 hours. As to the method: In the present example, the organoid of interest was cultured in a Matrigel™ drop for six days then harvested, and the organoid was suspended in Matrigel™ and loaded into the culture chamber 130 and placed at the gradient window 150 via the loading channel 170. A small drop of N2B27 medium was placed in each of the first and second medium chambers or reservoirs 110, 120 for humidification, and the chip was incubated in a 5% CO2 and 37° C. incubator for 5 minutes to allow the Matrigel™ to polymerise. After incubation, the first and second chambers 110, 120 were filled with N2B27 medium supplemented with 1.6 nM of BMP4 as a dorsal morphogen and 500 nM of SAG as a ventral morphogen respectively, and residual air in the device was removed from the first and second air outlets 140-1, 140-2 to allow the morphogen-supplemented media to diffuse across the gradient window 150. The device containing the organoid was incubated in a 5% CO2 and 37° C. incubator for 18 hours.
A neural tube organoid was placed in the gradient window of the device where a dorsal-ventral morphogen gradient has developed, using BMP4 as a dorsal morphogen and SAG as a ventral morphogen. PAX3/7 was used as a marker for dorsal fate neural tube cell and OLIG2 was used as a marker for ventral fate neural tube cell.
As described above, the neural tube organoids from D6 were introduced in the microfluidic device and exposed to different morphogen gradients for 18 hours. All scale bars are 100 μm.

Entries after “also recorded” stand apart in the source; their conditions may differ.

With `CNC1CCC(N(Cc2cccc(-c3ccncc3)c2)C(=O)c2sc3ccccc3c2Cl)CC1` (stereo not shown) [SAG], the “spatial patterning of neural tube organoid (PAX3/7 dorsal marker, OLIG2 ventral marker)” value was “OLIG2 positive cells were biased towards the SAG source; also recorded: OLIG2 biased to right side”. Moreover, the “identity of neural tube organoid (PAX3/7 dorsal marker, OLIG2 ventral marker)” value (N2B27 (L)-500 nM SAG (R)) is reported as “dominant ventral identity expressing OLIG2”.

B1: Bone Morphogenetic Protein 4 (protein, UniProt P12644 293-408, looked up)
Bone morphogenetic protein 4: SPKHHSQRARKKNKNCRRHSLYVDFSDVGWNDWIVAPPGYQAFYCHGDCPFPLADHLNSTNHAIVQTLVNSVNSSIPKACCVPTELSAISMLYLDEYDKVVLKNYQEMVVEGCGCR
notes: dorsalizing morphogen
With B1, the “spatial patterning of neural tube organoid (PAX3/7 dorsal marker, OLIG2 ventral marker)” value is given as “PAX3/7 positive cells were biased towards the BMP4 source; also recorded: PAX3/7 biased to the left side”. The “identity of neural tube organoid (PAX3/7 dorsal marker, OLIG2 ventral marker)” value (1.6 nM BMP4 (L)-N2B27 (R)) was “dorsal identity expressing PAX3/7”.
